Patent US11857601B2, “Pharmaceutical composition for cancer treatment comprising fusion protein including IL-2 protein and CD80 protein and anticancer drug” (GI INNOVATION, INC., priority 2020, dated 2024)

Columns and labels:
IL-2Rα = target: T1, IL-2Rα (Homo sapiens, UniProt P01589); assay: Binding to IL-2Rα (Octet, AR2G biosensor); details: as compared with GI101w and Proleukin
T1 construct: purchased Acro ILA-H52H9
T1 sequence (P01589 22-272): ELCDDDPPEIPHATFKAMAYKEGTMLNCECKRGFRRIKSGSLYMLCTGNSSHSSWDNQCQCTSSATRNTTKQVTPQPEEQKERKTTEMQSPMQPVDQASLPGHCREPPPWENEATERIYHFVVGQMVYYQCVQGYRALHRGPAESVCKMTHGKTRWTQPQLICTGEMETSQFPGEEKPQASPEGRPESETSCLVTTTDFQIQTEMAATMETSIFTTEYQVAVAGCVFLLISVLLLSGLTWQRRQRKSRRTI
Protocol: The binding ability for IL-2Rα was measured using the AR2G biosensor, and the binding ability for IL-2Rβ was measured using the Ni-NTA biosensors (Nickel charged Tris-NTA, Ni-NTA Biosensors, ForteBio, 18-5101).
A ligand (IL-2Rα-His Tag, Acro, Cat: ILA-H52H9) to be attached to the AR2G biosensor was diluted with 10 mM acetate buffer (pH 5, AR2G reagent Kit, ForteBio, Cat: 18-5095) to a concentration of 5 μg/ml. The AR2G biosensor was activated with a buffer prepared by mixing 400 mM EDC and 100 mM sulfo-NHS, and then the diluted ligand was loaded on the AR2G biosensor for 300 seconds and fixed.
Thereafter, GI101, GI101w, or Proleukin (Novartis, hIL-2), at various concentrations, to be attached to the ligand was loaded thereon for 300 seconds. Then, binding thereof was measured and dissociation thereof was also measured for 300 seconds. Binding kinetics analysis was performed using Octet Data Analysis HT software ver. 10 provided by Pall Corporation. The results are illustrated in FIGS. 22 to 24.

human PBMCs = assay: IFN-γ production in PHA-treated CFSE-labeled PBMCs (ELISA); assay type: cell-based; details: PBMCs + PHA 5 μg/ml; 1, 10 or 100 nM; 6 days; compared with GI101C1, GI101C2 or IL-2
Protocol: Peripheral blood mononuclear cells (PBMCs) isolated from a human were labeled with carboxyfluorescein succinimidyl ester (CFSE) by being reacted with 1 μM CellTrace CFSE dye at 37° C. for 20 minutes. CFSE not bound to the cells was removed by being reacted for 5 minutes with a culture medium having a 5-fold volume of the staining reaction solution and then by being centrifuged at 1,300 rpm for 5 minutes. […]
The cells were analyzed by FACS, and human IFN-γ present in the culture medium was measured using an ELISA kit (Biolegend, San Diego, CA, USA, cat No. 430103).
The amount of human IFN-γ secreted into the supernatant of each sample in which the cells had been cultured was measured using a human IFN-γ ELISA kit (Biolegend, cat No. 430103). […]
After the reaction was completed, the plate was washed and secondary antibodies (detection antibodies) were added thereto. […] Finally, […] was added thereto to stop the color development reaction, and the absorbance at 450 nm was measured with Epoch Microplate Spectrophotometer (BioTek instruments, Winooski, VT, USA), and the concentration was calculated.

[1] = system: CD8+ T cells and NK cells; assay: Proliferation of CD8+ T cells and NK cells in mouse spleen; assay type: in vivo, C57BL/6 mice; details: 40.5 μg i.p., spleen five days after injection; compared with GI101w
Protocol: 7-week-old C57BL/6 mice purchased from Orient Bio (Korea) were divided into 3 groups, each group including 3 mice, and PBS, GI101, or GI101w was injected intraperitoneally thereinto. Here, GI101 and GI101w were respectively prepared to be at 40.5 μg in 200 μl of PBS, and injected intraperitoneally thereinto. Five days after the injection, the spleens were removed from the mice of each group. The cells were isolated therefrom, and the total number of cells was measured using a hematocytometer. Splenocytes were examined for proportions of CD8+ T cells and NK cells therein, with FACS analysis using staining with APC-CD3ε antibody (Biolegend; 145-2C11), PE-NK1.1 antibody (Biolegend; PK136), and Pacific blue-CD8α antibody (BD; 53-6.7). As such, the numbers of CD8+ T cells and NK cells present in the spleen were calculated.

[2] = system: NCl-H292 cancer cell line with human PBMCs; assay: T cell activity inhibition by cancer cells expressing PD-L1 and CTLA-4 (IFN-γ ELISA); assay type: cell-based; details: 50 nM, 3 days
Protocol: NCl-H292 cancer cell line expressing PD-L1 and CTLA-4 was cultured for 3 hours in a culture medium containing 10 μg/ml Mitomycin C (Sigma), and then Mitomycin C was removed by washing with the culture medium. Thereafter, 5×10^4 cells of the Mitomycin C-treated NCl-H292 cancer cell line were incubated with 1×10^5 cells of human PBMCs in a 96-well microplate. Here, treatment with 5 μg/ml of PHA (Sigma) was performed for T cell activity. […] After 3 days, the supernatant of the cell culture was collected and the amount of IFN-γ was quantified using an ELISA kit (Biolegend).
As a positive control, human PBMCs stimulated with PHA in the absence of the Mitomycin C-treated NCl-H292 cancer cell line were used; and as a negative control, human PBMCs stimulated with PHA in the presence of the Mitomycin C-treated NCl-H292 cancer cell line were used. An experimental method using the IFN-7 ELISA kit was carried out in the same manner as in Experimental Example 9.3.

GI101: fusion protein: human CD80 fragment, Ig hinge, Fc domain, linker, IL-2 variant (2M) (R38A, F42A); SEQ ID NO: 9
binding ability for the IL-2 receptor IL-2Rα (IL-2Rα): low binding ability | IFN-γ secretion (human PBMCs): remarkable increase | proliferation of CD8+ T cells and NK cells in vivo [1]: activated proliferation | immune response inhibited by the cancer cell line overexpressing PD-L1 (IFN-γ) [2]: effectively activated | signaling of CTLA-4 expressed on effector T cells [2]: inhibited
